Assays:
virulent C. burnetii = tested on: virulent C. burnetii; design: species or system Coxiella burnetii
1E4 = format: binding, mouse

Row | Substance | number of dead bacteria (virulent C. burnetii) | inhibition index (A490 without PI-A490 with PI/A490 without PI) (1E4)
1 | EDTA | significantly higher numbers of dead bacteria | –
2 | SPPWHKHELHRK [m1E44] | – | highest inhibition index

— patent US9422545B2 (priority 2013, dated 2016)
